Experimental data from patent US9745349B2, “Cyclic peptide and pharmaceutical product containing same” (JAPAN SCIENCE AND TECHNOLOGY AGENCY, priority 2012, dated 2017).

What follows are substances tested against O-acyl isopeptide of Aβ (Homo sapiens, UniProt P05067) (assay: Aβ aggregation inhibition test (thioflavin T fluorescence)). Conditions: inhibitor 30 μM, Aβ O-acyl isopeptide 10 μM, 0.1 M phosphate buffer pH 7.4, 1% DMSO, 37° C.; DMSO control taken as 100.
Format: biochemical
Experimental: An aggregation inhibitory peptide solution (DMSO solution) was added to a 0.1 M phosphate buffer (pH 7.4, 50 μL) containing O-acyl isopeptide of Aβ (10 μM) (final concentration of inhibitor: 30 μM, 1% DMSO), and the resultant mixture was incubated at 37° C. for a specific period of time. Thereafter, a portion of the reaction mixture (10 μL) was added to a mixture of thioflavin T solution (50 μM thioflavin T, 10 μL) and 50 mM glycine-NaOH buffer (pH 8.5, 396 μL). Immediately thereafter, they were mixed together, and the fluorescence intensity of thioflavin T was measured at an excitation wavelength of 440 nm and an emission wavelength of 480 nm.

Chain of O-acyl isopeptide of Aβ (P05067 672-713 limits assumed): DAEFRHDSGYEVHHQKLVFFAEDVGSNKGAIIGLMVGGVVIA

First: cyclo-D-[Lys-Leu-Val-Phe(βPh)-Phe] [Compound 8]
Second: cyclo-D-[Lys-Leu-Val-(4-(3-Py)-Ph)Ala-Phe] [Compound 14]
The “Aggregation inhibitory activity ratio (the lower the ratio, the higher the inhibitory activity)” value of the first is lower: 28 for the first, 49 for the second.

First: cyclo-D-[Lys-Leu-Val-(4-(5-pyrimidine)-Ph)Ala-Phe] [Compound 16]
Second: cyclo-D-[Lys-Leu-Val-(4-(4-Py)-Ph)Ala-Phe] [Compound 15]
The “Aggregation inhibitory activity ratio (the lower the ratio, the higher the inhibitory activity)” value of the first is higher: 90 for the first, 57 for the second.

First: cyclo-D-[Lys-Leu-Val-(4-(3-phenol)-Ph)Ala-Phe] [Compound 17]
Second: cyclo-D-[Lys-Leu-Val-Phe-Ala] [Compound 7]
The “Aggregation inhibitory activity ratio (the lower the ratio, the higher the inhibitory activity)” value of the first is lower: 39 for the first, 104 for the second.

Compared with “cyclo-D-[Ala-Leu-Val-Phe-Phe] (ALVFF; HELM PEPTIDE1{[dA].[dL].[dV].[dF].[dF]}$PEPTIDE1,PEPTIDE1,1:R1-5:R2$$$V2.0; SMILES CC(C)C[C@H]1NC(=O)[C@@H](C)NC(=O)[C@@H](Cc2ccccc2)NC(=O)[C@@H](Cc2ccccc2)NC(=O)[C@@H](C(C)C)NC1=O) [Compound 3]”, “cyclo-D-[Lys-Ala-Val-Phe-Phe] [Compound 4]” is higher in “Aggregation inhibitory activity ratio (the lower the ratio, the higher the inhibitory activity)” value: 66 for the first, 88 for the second.

Compared with “cyclo-D-[Lys-Leu-Val-(4-(2-Py)-Ph)Ala-Phe] [Compound 13]”, “cyclo-D-[Lys-Leu-Ala-Phe-Phe] [Compound 5]” is higher in “Aggregation inhibitory activity ratio (the lower the ratio, the higher the inhibitory activity)” value: 81 for the first, 82 for the second.

In the case of “cyclo-D-[Lys-Leu-Val-Ala-Phe] [Compound 6]”, the “Aggregation inhibitory activity ratio (the lower the ratio, the higher the inhibitory activity)” value is reported as 106.
